# Data as given in patent publication US20150258043A1, “USE OF SPHINGOID LONG CHAIN BASES AND THEIR ANALOGS IN TREATING AND PREVENTING BACTERIAL INFECTIONS” (YEDA RESEARCH AND DEVELOPMENT CO. LTD., priority 2012, published 2015).
# Like-named read-outs stand apart in the source and are kept apart here.
# Experiments:
# [1] = tested on: P. aeruginosa strain 762; experiment: Effect of LCBs on P. aeruginosa growth in vitro (colony counts); assay type: cell-based, Pseudomonas aeruginosa; details: Pseudomonas aeruginosa
# Procedure: P. aeruginosa strain 762 or ATCC 27853 were grown in LB medium at 37° C. until the early logarithmic phase (OD550 0.2). Bacteria were then diluted in PBS to a concentration of 5×10^3 CFU/ml. Stock solutions of sphingolipids (5 mM in 7.5% n-Octyl-β-D-Glucopyranoside (OGP) or in DMSO were prepared by sonication. Sphingolipids were added to the bacteria (0.1-50 μM in 0.075% OGP or 1% DMSO). Bacteria were incubated with sphingolipids for 2 hr at 37° C. and a sample of 200 μl bacteria solution were plated on LB agar plates, incubated overnight at 37° C. and colonies were counted.
# The direct effect of sphingosine and other sphingoid long chain bases (LCBs) on the growth of P. aeruginosa was examined in vitro. Bacteria were incubated with a variety of LCBs and the EC50 values on bacterial growth were determined (Table 1).
# [2] = tested on: sphingosine and ceramide on tracheal and bronchial epithelial cells; experiment: Sphingosine and ceramide levels in airway epithelial cells after inhalation (immunostaining, in situ kinase assays); design: species or system mouse; details: CF (and CerS2 null) mice, in vivo inhalation
# Procedure: Sphingosine levels were determined in the trachea and lung of wildtype (wt), Cftr- and CerS2 null mice (Teichgräber, V. et al. Nat Med 2008, 14, 382-391; Pewzner-Jung et al. J Biol Chem. 2010 Apr. 2; 285(14):10902-10) and human nasal tissues by (i) confocal microscopy analysis of paraffin sections stained with Cy3-coupled anti-sphingosine antibodies and (ii) by newly developed biochemical assays that employed sphingosine kinase assays to determine sphingosine in freshly isolated tracheal epithelial cells and on the surface of tracheal epithelial cells in situ. In the latter experiments the intact trachea was carefully opened and incubated with sphingosine kinase in the presence of [^32]PγATP. Lipids were extracted and the concentration of sphingosine-1-[^32]P was determined. In addition, surface sphingosine was immunoprecipitated from the surface of tracheal epithelial cells by binding of anti-sphingosine antibodies to the intact inner surface of the trachea, followed by washing, lysis, immobilization of immune complexes, extraction of bound sphingosine and quantification of sphingosine by kinase assays. […]
# Mice were sacrificed and the trachea immediately removed. […] The TLC plates were exposed to radiography films, the spots were removed from the plates, and the incorporation of [^32P] into ceramide was measured by liquid scintillation counting. […]
# [3] = superscript reference marks; cited from earlier work
compound,measurement,setting,value
"CCCCCCCCCCCCC/C=C/[C@@H](O)[C@@H](N)CO (stereo in doubt) [D-erythro-Sphingosine, (2S,3R)-2-aminooctadec-4-ene-1,3-diol]",EC50,"[1]; 762, Table 3, Example 3, method of Example 2, n=3 for each analog, given as ranges, read-out: EC50",0.5 to 1 µM
same,EC50,"[1]; P. aeruginosa strain 762, 2 hrs at 37° C. in 0.075% OGP, colonies counted, at least 3 independent experiments, read-out: EC50 (μM) ± S.D.",0.5 ± 0.1 µM
same,sphingosine levels on airway epithelial cells after inhalation,[2],restored sphingosine levels
same,pK (in PBS),[3],"6.7^1,2"
